# Measurements taken from US20150094474A1, “AGRICULTURAL CHEMICALS” (Redx Pharma Ltd., priority 2012, published 2015).
# Legend:
# Chinese cabbage = test: Herbicidal bioassay, Chinese cabbage (% necrosis); assay type: in vivo
# Protocol: (§1) A laboratory bioassay was conducted to screen ten compounds (Fluazifop (25); Ethyl fluazifop (62); five fluazifop analogues: 27, 28, 63, 64 and 65; mesofulfuron (6); and two mesosulfuron analogues: 8 and 61. for activity against Lolium perenne, barley, peas and Chinese cabbage. Compounds were diluted in DMSO. Controls were performed using both DMSO and water.
# (§2) Plants were obtained as seeds and were grown to the 2-4 true leaf stage. Plants were grown individually in seed trays. Each plant (in an approximately 3 cm diameter plug) was then detached from the tray for spraying. Environmental conditions were closely monitored and recorded and were within the optimal range of the target species.
# (§3) The compounds were screened at a range of six concentrations, eg. 0.05%, 0.01%, 0.005%, 0.001%, 0.0005% and 0.0001%. Treatments will be applied directly onto the plants, using a potter tower.
# (§4) One plant of each type will be sprayed using a potter tower. The 4 different types of weeds will be placed in a 10 cm diameter area underneath the potter sprayer and sprayed simultaneously. The growth of the plants and any Phytotoxicity effects will then be assessed at specified growth intervals, according to EPPO guideline PP1/135. Five replicates will be performed for each treatment, for each species.
# Lolium perenne = test: Herbicidal bioassay, Lolium perenne / rye grass (% necrosis); assay type: in vivo
# Protocol: as §1, §2, §3, §4
smiles,measurement,setting,value
CCOC(=O)C(C)Oc1ccc(Oc2ccc(C(F)(F)F)cn2)cc1 (stereo not drawn) [Fluazifop Ethyl ester (62)],Sum of % necrosis in Chinese cabbage,"Chinese cabbage; Dose 0.00005, Day 0",C (less than 50% necrosis)
same,Sum of % necrosis in Chinese cabbage,"Chinese cabbage; Dose 0.00005, Day 1",C (less than 50% necrosis)
same,Sum of % necrosis in Chinese cabbage,"Chinese cabbage; Dose 0.00005, Day 3",C (less than 50% necrosis)
same,Sum of % necrosis in Chinese cabbage,"Chinese cabbage; Dose 0.00005, Day 7",B (50%-80% necrosis)
same,Sum of % necrosis in Chinese cabbage,"Chinese cabbage; Dose 0.00005, Day 10",A (over 80% necrosis)
same,Sum of % necrosis in Chinese cabbage,"Chinese cabbage; Dose 0.00005, Day 14",A (over 80% necrosis)
same,Sum of % necrosis in Chinese cabbage,"Chinese cabbage; Dose 0.00005, Day 21",A (over 80% necrosis)
same,Sum of % necrosis in Chinese cabbage,"Chinese cabbage; Dose 0.0001, Day 0",C (less than 50% necrosis)
same,Sum of % necrosis in Chinese cabbage,"Chinese cabbage; Dose 0.0001, Day 1",C (less than 50% necrosis)
same,Sum of % necrosis in Chinese cabbage,"Chinese cabbage; Dose 0.0001, Day 3",C (less than 50% necrosis)
same,Sum of % necrosis in Chinese cabbage,"Chinese cabbage; Dose 0.0001, Day 7",B (50%-80% necrosis)
same,Sum of % necrosis in Chinese cabbage,"Chinese cabbage; Dose 0.0001, Day 10",A (over 80% necrosis)
same,Sum of % necrosis in Chinese cabbage,"Chinese cabbage; Dose 0.0001, Day 14",A (over 80% necrosis)
same,Sum of % necrosis in Chinese cabbage,"Chinese cabbage; Dose 0.0001, Day 21",A (over 80% necrosis)
same,Sum of % necrosis in Chinese cabbage,"Chinese cabbage; Dose 0.0005, Day 0",C (less than 50% necrosis)
same,Sum of % necrosis in Chinese cabbage,"Chinese cabbage; Dose 0.0005, Day 1",C (less than 50% necrosis)
same,Sum of % necrosis in Chinese cabbage,"Chinese cabbage; Dose 0.0005, Day 3",B (50%-80% necrosis)
same,Sum of % necrosis in Chinese cabbage,"Chinese cabbage; Dose 0.0005, Day 7",A (over 80% necrosis)
same,Sum of % necrosis in Chinese cabbage,"Chinese cabbage; Dose 0.0005, Day 10",A (over 80% necrosis)
same,Sum of % necrosis in Chinese cabbage,"Chinese cabbage; Dose 0.0005, Day 14",A (over 80% necrosis)
same,Sum of % necrosis in Chinese cabbage,"Chinese cabbage; Dose 0.0005, Day 21",A (over 80% necrosis)
same,Sum of % necrosis in Rye grass,"Lolium perenne; Dose 0.000001, Day 0",C (less than 50% necrosis)
same,Sum of % necrosis in Rye grass,"Lolium perenne; Dose 0.000001, Day 1",C (less than 50% necrosis)
same,Sum of % necrosis in Rye grass,"Lolium perenne; Dose 0.000001, Day 3",C (less than 50% necrosis)
same,Sum of % necrosis in Rye grass,"Lolium perenne; Dose 0.000001, Day 7",C (less than 50% necrosis)
same,Sum of % necrosis in Rye grass,"Lolium perenne; Dose 0.000001, Day 10",C (less than 50% necrosis)
same,Sum of % necrosis in Rye grass,"Lolium perenne; Dose 0.000001, Day 14",C (less than 50% necrosis)
same,Sum of % necrosis in Rye grass,"Lolium perenne; Dose 0.000001, Day 21",C (less than 50% necrosis)
same,Sum of % necrosis in Rye grass,"Lolium perenne; Dose 0.000005, Day 0",C (less than 50% necrosis)
same,Sum of % necrosis in Rye grass,"Lolium perenne; Dose 0.000005, Day 1",C (less than 50% necrosis)
same,Sum of % necrosis in Rye grass,"Lolium perenne; Dose 0.000005, Day 3",C (less than 50% necrosis)
same,Sum of % necrosis in Rye grass,"Lolium perenne; Dose 0.000005, Day 7",C (less than 50% necrosis)
same,Sum of % necrosis in Rye grass,"Lolium perenne; Dose 0.000005, Day 10",C (less than 50% necrosis)
same,Sum of % necrosis in Rye grass,"Lolium perenne; Dose 0.000005, Day 14",C (less than 50% necrosis)
same,Sum of % necrosis in Rye grass,"Lolium perenne; Dose 0.000005, Day 21",C (less than 50% necrosis)
same,Sum of % necrosis in Rye grass,"Lolium perenne; Dose 0.00001, Day 0",C (less than 50% necrosis)
same,Sum of % necrosis in Rye grass,"Lolium perenne; Dose 0.00001, Day 1",C (less than 50% necrosis)
same,Sum of % necrosis in Rye grass,"Lolium perenne; Dose 0.00001, Day 3",C (less than 50% necrosis)
same,Sum of % necrosis in Rye grass,"Lolium perenne; Dose 0.00001, Day 7",C (less than 50% necrosis)
same,Sum of % necrosis in Rye grass,"Lolium perenne; Dose 0.00001, Day 10",C (less than 50% necrosis)
same,Sum of % necrosis in Rye grass,"Lolium perenne; Dose 0.00001, Day 14",C (less than 50% necrosis)
same,Sum of % necrosis in Rye grass,"Lolium perenne; Dose 0.00001, Day 21",C (less than 50% necrosis)
same,Sum of % necrosis in Rye grass,"Lolium perenne; Dose 0.00005, Day 0",C (less than 50% necrosis)
same,Sum of % necrosis in Rye grass,"Lolium perenne; Dose 0.00005, Day 1",C (less than 50% necrosis)
same,Sum of % necrosis in Rye grass,"Lolium perenne; Dose 0.00005, Day 3",C (less than 50% necrosis)
same,Sum of % necrosis in Rye grass,"Lolium perenne; Dose 0.00005, Day 7",C (less than 50% necrosis)
same,Sum of % necrosis in Rye grass,"Lolium perenne; Dose 0.00005, Day 10",C (less than 50% necrosis)
same,Sum of % necrosis in Rye grass,"Lolium perenne; Dose 0.00005, Day 14",C (less than 50% necrosis)
same,Sum of % necrosis in Rye grass,"Lolium perenne; Dose 0.00005, Day 21",B (50%-80% necrosis)
same,Sum of % necrosis in Rye grass,"Lolium perenne; Dose 0.0001, Day 0",C (less than 50% necrosis)
same,Sum of % necrosis in Rye grass,"Lolium perenne; Dose 0.0001, Day 1",C (less than 50% necrosis)
same,Sum of % necrosis in Rye grass,"Lolium perenne; Dose 0.0001, Day 3",C (less than 50% necrosis)
same,Sum of % necrosis in Rye grass,"Lolium perenne; Dose 0.0001, Day 7",C (less than 50% necrosis)
same,Sum of % necrosis in Rye grass,"Lolium perenne; Dose 0.0001, Day 10",C (less than 50% necrosis)
same,Sum of % necrosis in Rye grass,"Lolium perenne; Dose 0.0001, Day 14",A (over 80% necrosis)
same,Sum of % necrosis in Rye grass,"Lolium perenne; Dose 0.0001, Day 21",A (over 80% necrosis)
same,Sum of % necrosis in Rye grass,"Lolium perenne; Dose 0.0005, Day 0",C (less than 50% necrosis)
same,Sum of % necrosis in Rye grass,"Lolium perenne; Dose 0.0005, Day 1",C (less than 50% necrosis)
same,Sum of % necrosis in Rye grass,"Lolium perenne; Dose 0.0005, Day 3",C (less than 50% necrosis)
same,Sum of % necrosis in Rye grass,"Lolium perenne; Dose 0.0005, Day 7",C (less than 50% necrosis)
same,Sum of % necrosis in Rye grass,"Lolium perenne; Dose 0.0005, Day 10",C (less than 50% necrosis)
same,Sum of % necrosis in Rye grass,"Lolium perenne; Dose 0.0005, Day 14",C (less than 50% necrosis)
same,Sum of % necrosis in Rye grass,"Lolium perenne; Dose 0.0005, Day 21",C (less than 50% necrosis)
